Measured values: US20030039658A1, “MCEF, a novel transcription factor” (priority 2000, published 2003)

Assay: Geldanamycin cytotoxicity
Type: cell-based

COC1=C2C[C@@H](C)C[C@H](OC)[C@H](O)[C@@H](C)/C=C(\C)[C@H](OC(N)=O)[C@@H](OC)/C=C\C=C(/C)C(=O)NC(=CC1=O)C2=O [Geldanamycin]
cytotoxicity: primarily the result of GA cytotoxicity
